Data taken from ChEMBL document CHEMBL1681651, “A broad spectrum anticancer nucleoside with selective toxicity against human colon cells in vitro” (2011).

Legend:
Assay type in all cases: functional
786-0 [1] = test: Growth inhibition of human 786-0 cells assessed as cell growth at 100 uM after 48 hrs by SRB assay; conditions: 786-0, 48 h, read-out: Activity
NCI-H226 [2] = test: Growth inhibition of human NCI-H226 cells assessed as cell growth at 1 uM after 48 hrs by SRB assay; conditions: NCI-H226, 48 h, read-out: Activity
U-251 = test: Growth inhibition of human U251 cells assessed as cell growth at 1 mM after 48 hrs by SRB assay; conditions: U-251, 48 h, read-out: Activity
COLO 205 [3] = test: Growth inhibition of human COLO205 cells assessed as cell growth at 0.1 uM after 48 hrs by SRB assay; conditions: COLO 205, 48 h, read-out: Activity
SK-OV-3 [4] = test: Growth inhibition of human SKOV3 cells assessed as cell growth at 1 mM after 48 hrs by SRB assay; conditions: SK-OV-3, 48 h, read-out: Activity
NCI-H522 = test: Growth inhibition of human NCI-H522 cells assessed as cell growth at 0.1 uM after 48 hrs by SRB assay; conditions: NCI-H522, 48 h, read-out: Activity
K562 = test: Growth inhibition of human K562 cells assessed as cell growth at 10 uM after 48 hrs by SRB assay; conditions: K562, 48 h, read-out: Activity
SF-268 = test: Growth inhibition of human SF268 cells after 48 hrs by […] growth inhibition assay; conditions: SF-268, 48 h
NCI-H322M = test: Growth inhibition of human NCI-H322M cells assessed as cell growth at 100 uM after 48 hrs by SRB assay; conditions: read-out: Activity
MDA-MB-231 = test: Growth inhibition of human MDA-MB-231 cells assessed as cell growth at 1 mM after 48 hrs by SRB assay; conditions: MDA-MB-231, 48 h, read-out: Activity
SF-295 = test: Growth inhibition of human SF295 cells after 48 hrs by […] growth inhibition assay; conditions: SF-295, 48 h
UO-31 = test: Growth inhibition of human UO31 cells after 48 hrs by […] growth inhibition assay; conditions: UO-31, 48 h
MDA-MB-435 [5] = test: Growth inhibition of human MDA-MB-435 cells assessed as cell growth at 10 uM after 48 hrs by SRB assay; conditions: MDA-MB-435, 48 h, read-out: Activity
NCI-H226 [6] = test: Growth inhibition of human NCI-H226 cells assessed as cell growth at 1 mM after 48 hrs by SRB assay; conditions: NCI-H226, 48 h, read-out: Activity
M14 = test: Growth inhibition of human M14 cells assessed as cell growth at 10 uM after 48 hrs by SRB assay; conditions: M14, 48 h, read-out: Activity
BT-549 = test: Growth inhibition of human BT549 cells assessed as cell growth at 10 uM after 48 hrs by SRB assay; conditions: BT-549, 48 h, read-out: Activity
EKVX = test: Growth inhibition of human EKVX cells assessed as cell growth at 1 uM after 48 hrs by SRB assay; conditions: read-out: Activity
[7] = Growth inhibition of human […] cells assessed as cell growth at 100 uM after 48 hrs by SRB assay; conditions: read-out: Activity
OVCAR-3 = test: Growth inhibition of human OVCAR3 cells assessed as cell growth at 100 uM after 48 hrs by SRB assay; conditions: OVCAR-3, 48 h, read-out: Activity
MDA-MB-435 [8] = test: Growth inhibition of human MDA-MB-435 cells assessed as cell growth at 1 uM after 48 hrs by SRB assay; conditions: MDA-MB-435, 48 h, read-out: Activity
COLO 205 [9] = test: Growth inhibition of human COLO205 cells assessed as cell growth at 1 uM after 48 hrs by SRB assay; conditions: COLO 205, 48 h, read-out: Activity
SK-MEL-2 = test: Growth inhibition of human SK-MEL-2 cells assessed as cell growth at 1 uM after 48 hrs by SRB assay; conditions: SK-MEL-2, 48 h, read-out: Activity
786-0 [10] = test: Growth inhibition of human 786-0 cells assessed as cell growth at 1 mM after 48 hrs by SRB assay; conditions: 786-0, 48 h, read-out: Activity
SR = test: Growth inhibition of human SR cells assessed as cell growth at 10 uM after 48 hrs by SRB assay; conditions: read-out: Activity
SNB-19 = test: Growth inhibition of human SNB19 cells assessed as cell growth at 1 mM after 48 hrs by SRB assay; conditions: SNB-19, 48 h, read-out: Activity
OVCAR-5 [11] = test: Growth inhibition of human OVCAR5 cells assessed as cell growth at 1 mM after 48 hrs by SRB assay; conditions: OVCAR-5, 48 h, read-out: Activity
HOP-62 = test: Growth inhibition of human HOP62 cells assessed as cell growth at 0.1 uM after 48 hrs by SRB assay; conditions: HOP-62, 48 h, read-out: Activity
SK-MEL-5 = test: Growth inhibition of human SK-MEL-5 cells after 48 hrs by […] growth inhibition assay; conditions: SK-MEL-5, 48 h
SK-OV-3 [12] = test: Growth inhibition of human SKOV3 cells assessed as cell growth at 1 uM after 48 hrs by SRB assay; conditions: SK-OV-3, 48 h, read-out: Activity
HOP-92 = test: Growth inhibition of human HOP92 cells assessed as cell growth at 100 uM after 48 hrs by SRB assay; conditions: HOP-92, 48 h, read-out: Activity
HCT-116 = test: Growth inhibition of human HCT116 cells after 48 hrs by […] growth inhibition assay; conditions: HCT-116, 48 h
Malme-3M = test: Growth inhibition of human MALME-3M cells assessed as cell growth at 100 uM after 48 hrs by SRB assay; conditions: read-out: Activity
OVCAR-5 [13] = test: Growth inhibition of human OVCAR5 cells after 48 hrs by […] growth inhibition assay; conditions: OVCAR-5, 48 h
[14] = read-out: LC50 (the source's name)
[15] = read-out: pLC50 (the source's name) (converted)

Compound: CCOC(=O)C[C@H]1[C@@H](O[Si](C)(C)C(C)(C)C)[C@H](n2cnc3c(NC(=O)Nc4ccccc4)ncnc32)O[C@@H]1CNC(=O)NC
- growth at 100 µM (786-0 [1]): -34%
- growth at 1 µM (NCI-H226 [2]): 105%
- growth at 1000 µM (U-251): -61%
- growth at 0.1 µM (COLO 205 [3]): 102%
- growth at 1000 µM (SK-OV-3 [4]): 16%
- growth at 0.1 µM (NCI-H522): 89%
- growth at 10 µM (K562): 89%
- GI50 (SF-268; read-out: GI50): 6.53 µM
- CC50 (SF-268; [14]): 92.5 µM
- TGI (SF-268; read-out: TGI): 27 µM
- GI50 (SF-268; read-out: pGI50 (converted)): 6.61 µM
- CC50 (SF-268; [15]): 93.3 µM
- TGI (SF-268; read-out: pTGI (converted)): 26.9 µM
- growth at 100 µM (NCI-H322M): 89%
- growth at 1000 µM (MDA-MB-231): -13%
- GI50 (SF-295; read-out: GI50): 5.73 µM
- LC50 (SF-295; read-out: LC50): > 100 µM
- TGI (SF-295; read-out: TGI): > 100 µM
- GI50 (SF-295; read-out: pGI50 (converted)): 5.75 µM
- LC50 (SF-295; read-out: pLC50 (converted)): > 100 µM
- TGI (SF-295; read-out: pTGI (converted)): > 100 µM
- GI50 (UO-31; read-out: GI50): 12.1 µM
- CC50 (UO-31; [14]): 71.7 µM
- TGI (UO-31; read-out: TGI): 29.5 µM
- GI50 (UO-31; read-out: pGI50 (converted)): 12 µM
- CC50 (UO-31; [15]): 72.4 µM
- TGI (UO-31; read-out: pTGI (converted)): 29.5 µM
- growth at 10 µM (MDA-MB-435 [5]): 89%
- growth at 1000 µM (NCI-H226 [6]): 55%
- growth at 10 µM (M14): 81%
- growth at 10 µM (BT-549): 110%
- growth at 1 µM (EKVX): 90%
- growth at 100 µM [7]: -27%
- growth at 100 µM (OVCAR-3): 16%
- growth at 1 µM (MDA-MB-435 [8]): 92%
- growth at 1 µM (COLO 205 [9]): 97%
- growth at 1 µM (SK-MEL-2): 94%
- growth at 1000 µM (786-0 [10]): -97%
- growth at 10 µM (SR): 85%
- growth at 1000 µM (SNB-19): 12%
- growth at 1000 µM (OVCAR-5 [11]): 27%
- growth at 0.1 µM (HOP-62): 99%
- GI50 (SK-MEL-5; read-out: GI50): 4.34 µM
- CC50 (SK-MEL-5; [14]): > 100 µM
- TGI (SK-MEL-5; read-out: TGI): > 100 µM
- GI50 (SK-MEL-5; read-out: pGI50 (converted)): 4.37 µM
- CC50 (SK-MEL-5; [15]): > 100 µM
- TGI (SK-MEL-5; read-out: pTGI (converted)): > 100 µM
- growth at 1 µM (SK-OV-3 [12]): 96%
- growth at 100 µM (HOP-92): -32%
- GI50 (HCT-116; read-out: GI50): 3.2 µM
- CC50 (HCT-116; [14]): 45.6 µM
- TGI (HCT-116; read-out: TGI): 16.1 µM
- GI50 (HCT-116; read-out: pGI50 (converted)): 3.24 µM
- CC50 (HCT-116; [15]): 45.7 µM
- TGI (HCT-116; read-out: pTGI (converted)): 16.2 µM
- growth at 100 µM (Malme-3M): 50%
- GI50 (OVCAR-5 [13]; read-out: GI50): 31.1 µM
- CC50 (OVCAR-5 [13]; [14]): > 100 µM
- TGI (OVCAR-5 [13]; read-out: TGI): > 100 µM
- GI50 (OVCAR-5 [13]; read-out: pGI50 (converted)): 30.9 µM
- CC50 (OVCAR-5 [13]; [15]): > 100 µM
- TGI (OVCAR-5 [13]; read-out: pTGI (converted)): > 100 µM
